According to patent publication US11358957B2, “Microbiocidal oxadiazole derivatives” (SYNGENTA PARTICIPATIONS AG, priority 2017, dated 2022):

Assays:
[1] = test system: Puccinia recondita f. Sp. Tritici; experiment: Fungicidal activity against Puccinia recondita f. sp. tritici / wheat / leaf disc curative (brown rust); type: in vivo; details: foliar, 24 h, 200 ppm in the applied formulation, wheat leaf segments cv. Kanzler, curative (applied 1 day after inoculation), compared to untreated, read-out: disease control
Experimental: Leaf disks or leaf segments of various plant species are cut from plants grown in a greenhouse. The cut leaf disks or segments are placed in multiwell plates (24-well format) onto water agar. The leaf disks are sprayed with a test solution before (preventative) or after (curative) inoculation. Compounds to be tested are prepared as DMSO solutions (max. 10 mg/mL) which are diluted to the appropriate concentration with 0.025% Tween20 just before spraying. The inoculated leaf disks or segments are incubated under defined conditions (temperature, relative humidity, light, etc.) according to the respective test system. A single evaluation of disease level is carried out 3 to 14 days after inoculation, depending on the pathosystem. Percent disease control relative to the untreated check leaf disks or segments is then calculated. Wheat leaf segments cv. Kanzler are placed on agar in multiwell plates (24-well format). The leaf segments are then inoculated with a spore suspension of the fungus. Plates were stored in darkness at 19C and 75% relative humidity. The formulated test compound diluted in water was applied 1 day after inoculation. The leaf segments were incubated at 19° C. and 75% relative humidity under a light regime of 12 hours light/12 hours darkness in a climate cabinet and the activity of a compound was assessed as percent disease control compared to untreated when an appropriate level of disease damage appears in untreated check leaf segments (6 to 8 days after application). The following compounds at 200 ppm in the applied formulation give at least 80% disease control in this test when compared to untreated control leaf disks under the same conditions, which show extensive disease development.

[2] = test system: Glomerella lagenarium (Colletotrichum lagenarium); experiment: Fungicidal activity against Glomerella lagenarium (Colletotrichum lagenarium) liquid culture / cucumber / preventative (anthracnose); type: cell-based; details: Colletotrichum orbiculare; 20 ppm in the applied formulation; liquid culture (PDB), inhibition of growth measured photometrically 3 to 4 days after application; compared to untreated; read-out: disease control
Experimental: Mycelia fragments or conidia suspensions of a fungus prepared either freshly from liquid cultures of the fungus or from cryogenic storage, are directly mixed into nutrient broth. DMSO solutions of the test compound (max. 10 mg/mL) are diluted with 0.025% Tween20 by a factor of 50 and 10 μL of this solution is pipetted into a microtiter plate (96-well format). The nutrient broth containing the fungal spores/mycelia fragments is then added to give an end concentration of the tested compound. The test plates are incubated in the dark at 24° C. and 96% relative humidity. The inhibition of fungal growth is determined photometrically after 2 to 7 days, depending on the pathosystem, and percent antifungal activity relative to the untreated check is calculated. Conidia of the fungus from cryogenic storage are directly mixed into nutrient broth (PDB—potato dextrose broth). After placing a (DMSO) solution of test compound into a microtiter plate (96-well format), the nutrient broth containing the fungal spores is added. The test plates are incubated at 24° C. and the inhibition of growth is measured photometrically 3 to 4 days after application. The following compounds at 20 ppm in the applied formulation give at least 80% disease control in this test when compared to untreated control under the same conditions, which show extensive disease development.

[3] = test system: Puccinia recondita f. Sp. Tritici; experiment: Fungicidal activity against Puccinia recondita f. sp. tritici / wheat / leaf disc preventative (brown rust); type: in vivo; details: foliar, 200 ppm in the applied formulation, wheat leaf segments cv. Kanzler, preventative (inoculated 1 day after application), compared to untreated, read-out: disease control
Experimental: Leaf disks or leaf segments of various plant species are cut from plants grown in a greenhouse. The cut leaf disks or segments are placed in multiwell plates (24-well format) onto water agar. The leaf disks are sprayed with a test solution before (preventative) or after (curative) inoculation. Compounds to be tested are prepared as DMSO solutions (max. 10 mg/mL) which are diluted to the appropriate concentration with 0.025% Tween20 just before spraying. The inoculated leaf disks or segments are incubated under defined conditions (temperature, relative humidity, light, etc.) according to the respective test system. A single evaluation of disease level is carried out 3 to 14 days after inoculation, depending on the pathosystem. Percent disease control relative to the untreated check leaf disks or segments is then calculated. Wheat leaf segments cv. Kanzler were placed on agar in multiwell plates (24-well format) and sprayed with the formulated test compound diluted in water. The leaf disks were inoculated with a spore suspension of the fungus 1 day after application. The inoculated leaf segments were incubated at 19° C. and 75% relative humidity (rh) under a light regime of 12 hours light/12 hours darkness in a climate cabinet and the activity of a compound was assessed as percent disease control compared to untreated when an appropriate level of disease damage appears in untreated check leaf segments (7 to 9 days after application). The following compounds at 200 ppm in the applied formulation give at least 80% disease control in this test when compared to untreated control leaf disks under the same conditions, which show extensive disease development.

C#CCNC(=O)c1ncn(Cc2ccc(-c3noc(C(F)(F)F)n3)s2)n1 [Compound 1.98, N-prop-2-ynyl-1-[[5-[5-(trifluoromethyl)-1,2,4-oxadiazol-3-yl]-2-thienyl]methyl]-1,2,4-triazole-3-carboxamide]
≥ 80%: pest or weed control at 200 ppm [1] | inhibition of growth at 20 ppm [2] | pest or weed control at 200 ppm [3]

CC(C)(C)CNC(=O)c1cnn(Cc2ccc(-c3noc(C(F)(F)F)n3)s2)c1 [Compound 1.101, N-(2,2-dimethylpropyl)-1-[[5-[5-(trifluoromethyl)-1,2,4-oxadiazol-3-yl]-2-thienyl]methyl]pyrazole-4-carboxamide]
≥ 80%: pest or weed control at 200 ppm [1] | inhibition of growth at 20 ppm [2] | pest or weed control at 200 ppm [3]

CC(C)NC(=O)c1cnn(Cc2ccc(-c3noc(C(F)(F)F)n3)s2)c1 [Compound 1.102, N-isopropyl-1-[[5-[5-(trifluoromethyl)-1,2,4-oxadiazol-3-yl]-2-thienyl]methyl]pyrazole-4-carboxamide]
≥ 80%: pest or weed control at 200 ppm [1] | inhibition of growth at 20 ppm [2] | pest or weed control at 200 ppm [3]

CON(C)C(=O)c1cnn(Cc2ccc(-c3noc(C(F)(F)F)n3)s2)c1 [Compound 1.103, N-methoxy-N-methyl-1-[[5-[5-(trifluoromethyl)-1,2,4-oxadiazol-3-yl]-2-thienyl]methyl]pyrazole-4-carboxamide]
≥ 80%: pest or weed control at 200 ppm [1] | inhibition of growth at 20 ppm [2] | pest or weed control at 200 ppm [3]

O=C(NC1CCCCC1)c1cnn(Cc2ccc(-c3noc(C(F)(F)F)n3)s2)c1 [Compound 1.105, N-cyclohexyl-1-[[5-[5-(trifluoromethyl)-1,2,4-oxadiazol-3-yl]-2-thienyl]methyl]pyrazole-4-carboxamide]
≥ 80%: pest or weed control at 200 ppm [1] | inhibition of growth at 20 ppm [2] | pest or weed control at 200 ppm [3]

CCNC(=O)c1cnn(Cc2ccc(-c3noc(C(F)(F)F)n3)s2)c1 [Compound 1.106, N-ethyl-1-[[5-[5-(trifluoromethyl)-1,2,4-oxadiazol-3-yl]-2-thienyl]methyl]pyrazole-4-carboxamide]
≥ 80%: pest or weed control at 200 ppm [1] | inhibition of growth at 20 ppm [2] | pest or weed control at 200 ppm [3]

CC(C)CNC(=O)c1cnn(Cc2ccc(-c3noc(C(F)(F)F)n3)s2)c1 [Compound 1.109, N-isobutyl-1-[[5-[5-(trifluoromethyl)-1,2,4-oxadiazol-3-yl]-2-thienyl]methyl]pyrazole-4-carboxamide]
≥ 80%: pest or weed control at 200 ppm [1] | inhibition of growth at 20 ppm [2] | pest or weed control at 200 ppm [3]

CCNC(=O)c1ccn(Cc2ccc(-c3noc(C(F)(F)F)n3)s2)n1 [Compound 1.120, N-ethyl-1-[[5-[5-(trifluoromethyl)-1,2,4-oxadiazol-3-yl]-2-thienyl]methyl]pyrazole-3-carboxamide]
≥ 80%: pest or weed control at 200 ppm [1] | inhibition of growth at 20 ppm [2] | pest or weed control at 200 ppm [3]

C=CCNC(=O)c1ccn(Cc2ccc(-c3noc(C(F)(F)F)n3)s2)n1 [Compound 1.122, N-allyl-1-[[5-[5-(trifluoromethyl)-1,2,4-oxadiazol-3-yl]-2-thienyl]methyl]pyrazole-3-carboxamide]
≥ 80%: pest or weed control at 200 ppm [1] | inhibition of growth at 20 ppm [2] | pest or weed control at 200 ppm [3]

O=C(NC1CC1)c1ccn(Cc2ccc(-c3noc(C(F)(F)F)n3)s2)n1 [Compound 1.126, N-cyclopropyl-1-[[5-[5-(trifluoromethyl)-1,2,4-oxadiazol-3-yl]-2-thienyl]methyl]pyrazole-3-carboxamide]
≥ 80%: pest or weed control at 200 ppm [1] | inhibition of growth at 20 ppm [2] | pest or weed control at 200 ppm [3]

CCN(CC)C(=O)c1ccn(Cc2ccc(-c3noc(C(F)(F)F)n3)s2)n1 [Compound 1.128, N,N-diethyl-1-[[5-[5-(trifluoromethyl)-1,2,4-oxadiazol-3-yl]-2-thienyl]methyl]pyrazole-3-carboxamide]
≥ 80%: pest or weed control at 200 ppm [1] | inhibition of growth at 20 ppm [2] | pest or weed control at 200 ppm [3]

O=C(NCc1ccco1)c1cnn(Cc2ccc(-c3noc(C(F)(F)F)n3)s2)c1 [Compound 1.129, N-(2-furylmethyl)-1-[[5-[5-(trifluoromethyl)-1,2,4-oxadiazol-3-yl]-2-thienyl]methyl]pyrazole-4-carboxamide]
≥ 80%: pest or weed control at 200 ppm [1] | inhibition of growth at 20 ppm [2] | pest or weed control at 200 ppm [3]

O=C(Nc1ccccc1)c1ccn(Cc2ccc(-c3noc(C(F)(F)F)n3)s2)n1 [Compound 1.130, N-phenyl-1-[[5-[5-(trifluoromethyl)-1,2,4-oxadiazol-3-yl]-2-thienyl]methyl]pyrazole-3-carboxamide]
≥ 80%: pest or weed control at 200 ppm [1] | inhibition of growth at 20 ppm [2] | pest or weed control at 200 ppm [3]

CCCNC(=O)c1ccn(Cc2ccc(-c3noc(C(F)(F)F)n3)s2)n1 [Compound 1.137, N-propyl-1-[[5-[5-(trifluoromethyl)-1,2,4-oxadiazol-3-yl]-2-thienyl]methyl]pyrazole-3-carboxamide]
≥ 80%: pest or weed control at 200 ppm [1] | inhibition of growth at 20 ppm [2] | pest or weed control at 200 ppm [3]

CCC(C)NC(=O)c1ncn(Cc2ccc(-c3noc(C(F)(F)F)n3)s2)n1 (stereo not drawn) [Compound 1.144, N-sec-butyl-1-[[5-[5-(trifluoromethyl)-1,2,4-oxadiazol-3-yl]-2-thienyl]methyl]-1,2,4-triazole-3-carboxamide]
≥ 80%: pest or weed control at 200 ppm [1] | inhibition of growth at 20 ppm [2] | pest or weed control at 200 ppm [3]

CC(C)(C)CNC(=O)c1ncn(Cc2ccc(-c3noc(C(F)(F)F)n3)s2)n1 [Compound 1.145, N-(2,2-dimethylpropyl)-1-[[5-[5-(trifluoromethyl)-1,2,4-oxadiazol-3-yl]-2-thienyl]methyl]-1,2,4-triazole-3-carboxamide]
≥ 80%: pest or weed control at 200 ppm [1] | inhibition of growth at 20 ppm [2] | pest or weed control at 200 ppm [3]

C=CCNC(=O)c1ncn(Cc2ccc(-c3noc(C(F)(F)F)n3)s2)n1 [Compound 1.151, N-allyl-1-[[5-[5-(trifluoromethyl)-1,2,4-oxadiazol-3-yl]-2-thienyl]methyl]-1,2,4-triazole-3-carboxamide]
≥ 80%: pest or weed control at 200 ppm [1] | inhibition of growth at 20 ppm [2] | pest or weed control at 200 ppm [3]

CON(C)C(=O)c1ccnn1Cc1ccc(-c2noc(C(F)(F)F)n2)s1 [Compound 1.158, N-methoxy-N-methyl-2-[[5-[5-(trifluoromethyl)-1,2,4-oxadiazol-3-yl]-2-thienyl]methyl]pyrazole-3-carboxamide]
≥ 80%: pest or weed control at 200 ppm [1] | inhibition of growth at 20 ppm [2] | pest or weed control at 200 ppm [3]

CC(C)CNC(=O)c1ccnn1Cc1ccc(-c2noc(C(F)(F)F)n2)s1 [Compound 1.160, N-isobutyl-2-[[5-[5-(trifluoromethyl)-1,2,4-oxadiazol-3-yl]-2-thienyl]methyl]pyrazole-3-carboxamide]
≥ 80%: pest or weed control at 200 ppm [1] | inhibition of growth at 20 ppm [2] | pest or weed control at 200 ppm [3]
